Experimental data published in patent US6083982A, “Natriuretic compounds” (Loma Linda University Medical, priority 1998, dated 2000).
Where “and” joins values, the source holds several entries; their conditions need not be identical. Equal entries are not always repeated. Entries after “also recorded” stand apart in the source; their conditions may differ.

Tests used:
conscious rats = test: In vivo bioassay for natriuresis, kaliuresis, diuresis and mean arterial pressure in conscious rats; design: species or system female Sprague-Dawley rats; conditions: for Natriuretic Response (R): Rn = SR/FR, >0.67 active
Protocol: Female Sprague-Dawley (Harlan) rats (200-250 g) were cannulated in the femoral artery and vein for monitoring of mean arterial pressure (MAP) and infusion of saline and samples, respectively. The bladder was catheterized for collection of urine in ten-minute periods. Furosemide (0.4 mg/kg bwt; 1 mg/mL in 0.17% saline) was infused as a positive control at the beginning of the sixth ten-minute period. The sample was infused at the beginning of the seventeenth ten-minute period. Urine was collected for another 150 minutes. The volume of the urine was determined gravimetrically and the Na^+ and K^+ concentrations determined with a Beckman E2A electrolyte analyzer.
The natriuretic response of a sample was normalized to the dose of furosemide infused. The net sodium excretion for the infusion of furosemide or sample was calculated as follows. The median sodium excretion value (μmoles Na^+ /10 minute period) for the five periods before infusion of furosemide or sample was used to establish a baseline value for the calculation of ΔUNaV(=μmoles Na^+ period-baseline μmoles Na^+) for administration of either furosemide or sample respectively. The sum of ΔUNaV for the four periods following infusion of furosemide was the net sodium excreted for furosemide, defined as FR. The sum of ΔUNaV for the fifteen periods following infusion of the sample was the net sodium excreted for the sample defined as SR. The natriuretic ratio Rn (or normalized natriuretic response) of a sample was calculated by dividing SR by FR(Rn =SR/FR).

[1] = Chemical stability (physical properties); type: physicochemical
Na^+ /K^+ -ATPase = Na^+ /K^+ -ATPase (Bos taurus, UniProt Q08DA1); test: Na+/K+-ATPase (sodium pump) inhibition assay, 86Rb+ uptake in MDBK cells; type: cell-based, bovine (Madin-Darby bovine kidney cells); conditions: 0.2-200 ng/well
Protocol: The assay in MDBK cells has been described previously (see Benaksas et al., above). The assay is described briefly here. Madin-Darby bovine kidney (MDBK) cells (ATCC:CCL22) were maintained in Dulbecco's Modified Eagle's Medium (DMEM) with 5% Fetal Bovine Serum and 5% Bovine Calf Serum in a 5% CO2 /95% humidified air atmosphere at 37° C. and split (1:2) once per week.
One day before the assay, cells were plated in a 96-well plate at a density of 5×10^5 cells/well in DMEM with serum. On the day of the assay the medium was removed and the cells washed with phosphate buffered saline (PBS) before addition of 100 μL of assay media (122 mM NaCl, 1.8 mM CaCl2, 0.8 mM MgSO4, 24 mM NaHCO3, 1 mM sodium pyruvate, 25 mM glucose, 14 mM glycylglycine, 0.2% phenol red, 8 mM Na2 HPO4 1.15 mM KH2 PO4, pH 8.0) and 100 μl of sample. The plate was preincubated for 30 minutes at 37° C., then chilled on ice for 10 minutes. To each well was added 0.15 μCi ^86 RbCl (Amersham) in 10 μL of assay media. The plate was then incubated at 37° C. for 10 minutes. A portion (100 μL) of the supernatant was counted with 0.5 mL of scintillation cocktail in a liquid scintillation counter. As a control for Na^+ /K^+ -ATPase inhibition, a dose response curve for ouabain in the range of 10^-5 -10^-8 M was obtained. Intra-experiment coefficient of variation for ouabain was 3-15%. […]

[2] = literature statement; cited from earlier work

Structure (SMILES): Cc1c(O)cc2c(c1C)OC(C)(CCC(=O)O)CC2 (stereo not drawn) [LLU-α, 6-hydroxy-2,7,8-trimethylchroman-2-propanoic acid]
- free radical scavenging (Free radical scavenging): cardio-selective free radical scavenger
- natriuretic activity (conscious rats; 8 μg/kg, further purified on acetic acid/acetonitrile RP-HPLC (seventh step)): active
- natriuretic dose-response curve (conscious rats; Table III): narrow and biphasic
- natriuretic activity of isolates (conscious rats; crude isolates from second RP-HPLC step): natriuretically active
- sodium excretion in urine relative to potassium excretion (conscious rats; in mammals): increasing sodium excretion in the urine in mammals without a corresponding increase in potassium excretion
- kaliuresis (potassium excretion) on infusion (conscious rats; infused into conscious rats): no detectable kaliuresis
- natriuresis on infusion (conscious rats; infused into the rat (FIGS. 3A and B)): sustained natriuresis
- effect on blood pressure (conscious rats; infused into the rat, data not shown): no effect on blood pressure
- change in mean arterial pressure (conscious rats; on infusion, conscious rats): does not cause a significant change in mean arterial pressure; also recorded: Neither LLU-α nor -γ caused a significant change in mean arterial pressure
- natriuretic activity at lower or higher doses (conscious rats; partially purified (sixth purification step), doses below or above 4-8 μg/kg): no activity
- natriuretically active dose range (conscious rats; partially purified, silica gel HPLC (sixth purification step)): 4 to 8 µg/kg
- Natriuretic Response (R) (conscious rats; silica gel HPLC fraction 17, dose 0.2 μg): -0.14
- Natriuretic Response (R) (conscious rats; silica gel HPLC fraction 17, dose 1 μg): 0.27
- Natriuretic Response (R) (conscious rats; silica gel HPLC fraction 17, dose 2 μg): 1.14 and 0.75
- Natriuretic Response (R) (conscious rats; silica gel HPLC fraction 17, dose 10 μg): 0.26
- Natriuretic Response (R) (conscious rats; silica gel HPLC fraction 18, dose 56.4 μg): 0.23
- Natriuretic Response (R) (conscious rats; silica gel HPLC fraction 18, dose 224 μg): 0.02
- Natriuretic Response (R) (conscious rats; silica gel HPLC fraction 19, dose 0.2 μg): 0.24
- Natriuretic Response (R) (conscious rats; silica gel HPLC fraction 19, dose 1 μg): 0.93
- Natriuretic Response (R) (conscious rats; silica gel HPLC fraction 19, dose 10 μg): 0.09
- stability in CDCl3 ([1]; CDCl3): Unstable
- stability in dilute base ([1]; dilute base): instability in dilute base; also recorded: Unstable
- Na^+ /K^+ -ATPase inhibition (Na^+ /K^+ -ATPase): no inhibition

Structure (SMILES): C[C@@H]1O[C@@H](O[C@H]2C[C@@H](O)[C@]3(CO)[C@H]4[C@H](O)C[C@]5(C)[C@@H](C6=CC(=O)OC6)CC[C@]5(O)[C@@H]4CC[C@]3(O)C2)[C@H](O)[C@H](O)[C@H]1O [Ouabain]
- natriuretic activity [2]: not, however, natriuretic

Structure (SMILES): C[C@H]1O[C@@H](O[C@H]2[C@@H](O)C[C@H](O[C@H]3[C@@H](O)C[C@H](O[C@H]4CC[C@@]5(C)[C@H](CC[C@@H]6[C@@H]5C[C@@H](O)[C@]5(C)[C@@H](C7=CC(=O)OC7)CC[C@]65O)C4)O[C@@H]3C)O[C@@H]2C)C[C@H](O)[C@@H]1O [digoxin]
- natriuretic activity [2]: not, however, natriuretic
